{
  "source": "patent US20140296178A1",
  "about": "“Combination Therapy with a Gallium Complex” (priority 2010, published 2014)",
  "test_system": "multiple myeloma tumor cell line RPMI 8226",
  "assay": "Promega Cell Titer-Glo antiproliferative assay, single agent and combination",
  "assay_type": "cell-based, human",
  "details": "unit from figure X axis",
  "protocol": "The antiproliferative activity of tris(8-quinolinolato)gallium(III) and lenalidomide against the human multiple myeloma tumor cell line RPMI 8226 was determined with Promega's Cell Titer-Glo® assay. The human tumor cells were placed in a 96-well microculture plate at the appropriate density for 96 hours of total growth time. After 24 hours of incubation in a humidified incubator at 37° C. with 5% CO2 and 95% air, serially diluted test agents in growth medium were added to each well. After 96 total hours of culture in a CO2 incubator, the plates were processed with Cell Titer-Glo (Promega #G7571) according to manufacturer's instructions. Luminescence was detected using a Tecan GENios microplate reader. Percent inhibition of cell growth was calculated relative to untreated control wells. All tests were performed in duplicate at each concentration level. The IC50 value for the test agents was estimated using Prism 3.03 by curve-fitting the data using the following four parameter-logistic equation: […]\nThe same Promega Cell Titer-Glo® assay described above was used in the combination study. […] After 96 hours, the cell number was determined with the Cell Titer Glo® assay as described above. […]",
  "note": "pIC50: −log10 of the molar value.",
  "data": [
    {"smiles": "[Ga+3].[O-]c1cccc2cccnc12.[O-]c1cccc2cccnc12.[O-]c1cccc2cccnc12", "note": "[tris(8-quinolinolato)gallium(III)]", "values": [
      {"measurement": "pIC50", "setting": "RPMI-8226, tris(8-quinolinolato)gallium(III) alone", "result": "~6.05"},
      {"measurement": "pIC50", "setting": "RPMI-8226, with lenalidomide at a constant amount", "result": 6.30}
    ]}
  ]
}
